What was measured:
Assay type in all cases: functional, cell-based
Conditions in all cases: Mus musculus
[1] = tested on: L1210; assay: Tested for in vitro growth inhibition against murine leukemia cell L1210S
[2] = tested on: P388; assay: Tested for in vitro growth inhibition against murine leukemia cell P388S
[3] = tested on: L1210; assay: Tested for in vitro growth inhibition against murine leukemia cell L1210PtR4
[4] = tested on: L1210; assay: Tested for in vitro growth inhibition against murine leukemia cell L1210DACH
[5] = tested on: L1210; assay: Tested for in vitro growth inhibition against murine leukemia cell L1210DDP5
[6] = tested on: P388; assay: Tested for in vitro growth inhibition against murine leukemia cell P388Pt4

## CI-973
[1]
  ID50: 0.76 µg/mL
[2]
  ID50: 0.1 µg/mL
[3]
  ID50: 2.6 µg/mL
[4]
  ID50: 1.8 µg/mL
[5]
  ID50: 3.9 µg/mL
[6]
  ID50: 1.62 µg/mL

## [Pt(1R,2R-dach)Cl2]
[1]
  ID50: 0.059 µg/mL
[2]
  ID50: 0.077 µg/mL
[3]
  ID50: 0.161 µg/mL
[4]
  ID50: 4.57 µg/mL
[5]
  ID50: 0.164 µg/mL
[6]
  ID50: 0.83 µg/mL

Source: ChEMBL document CHEMBL1127616, “Synthesis, structural characterization, and antitumor properties of a novel class of large-ring platinum(II) chelate complexes incorporating the cis-1,4-diaminocyclohexane ligand in a unique locked boat conformation” (J Med Chem, 1994)
